Measurements as given in patent US10512673B2, “Use of peptide-based inhibitors of the stat3-IL10 pathway for treating bacterial infection and granulomatous disease” (The United States of America, as Represented by the …, priority 2015, dated 2019).
Entries after “also recorded” stand apart in the source; their conditions may differ. Where no end group is shown, it is not given here. [ ]: non-standard residue; d: D form. The star is where a group is joined. Palmitoyl = CCCCCCCCCCCCCCCC(=O)*

How the values were obtained:
arg1 [1] = experiment: RT-PCR of arg1 transcript in lungs; type: in vivo, C57BL/6 mice
beclin-1 = experiment: qRT-PCR of beclin-1 transcript in lungs; type: in vivo, C57BL/6 mice; details: 100 μg/dose
Experimental: (§1) The upper right lobe of the lungs from each mouse were homogenized in Trizol (Invitrogen) using Next Advance bullet blender (Averill Park, N.Y.) and frozen at −80° C. immediately. RNA was extracted following the manufacturer's protocol. Trizol DNA was digested with RQ1 RNase-free DNase (Promega, Madison, Wis.) and RNA was re-isolated using Trizol. Finally, the concentration of RNA in each sample was measured by spectrophotometry and the RNA was reverse transcribed with M-Mulv (New England Bio Labs, Ipswich, Mass.) and random hexamers (Roche, Basel, Switzerland).
(§2) When lung homogenates from each mouse were used to determine the levels of expression of Bcl-2 and Atg-5 protein using ELISA, the results were similar to those obtained by qRT-PCR.

stat3 = system: stat3; set-up: species or system C57BL/6 mice; details: mouse, in vivo
nos2 [2] = experiment: NOS2 activity in lung homogenates (Griess reaction); type: in vivo, C57BL/6 mice; details: 100 μg/dose, vs untreated infected mice
Experimental: (§3) The quantification of end effector molecules and enzymes involved in the host antimicrobial activity in the lungs of mice were performed using lung homogenates obtained as indicated above. Lung homogenate supernatants were used in a Griess reaction (G 7921, Molecular probes, Invitrogen, Eugene, Oreg.), Arginase assay (Bioassay Systems, DARG-200), NADPH (Bioassay Systems, ECNP-100), and lysozyme (Molecular Probes E-22013).
For the Griess reaction, reagents were acclimated at room temperature for 20 min prior to the assay. Thereafter, the samples were centrifuged at 1200 rpm for 2 min and the Griess reaction was performed following the manufacturer's instructions. Briefly, samples and prepared standards were diluted following the manufacturer's instructions with distilled sterile water in a 96 well plate. 20 μl of Griess reaction were added to each reaction well. Samples and standards were incubated for 30 minutes in the dark. Thereafter, samples were read using a Biotech Synergy 2 Multi-Mode Micro Plate Reader [U5] spectrophotometer at 546 nm.

bcl-2 = experiment: qRT-PCR of bcl-2 transcript in lungs; type: in vivo, C57BL/6 mice; details: 100 μg/dose
Experimental: as §1, §2

bax = experiment: qRT-PCR of bax transcript in lungs; type: in vivo, C57BL/6 mice; details: 100 μg/dose
Experimental: as §1, §2

[3] = system: Mycobacterium tuberculosis (Erdman strain); details: in vivo
atg5 = experiment: qRT-PCR of atg5 transcript in lungs; type: in vivo, C57BL/6 mice; details: 100 μg/dose
Experimental: as §1, §2

NADPH = NADPH assay in lung homogenates; type: in vivo, C57BL/6 mice; details: 100 μg/dose, vs untreated infected mice
Experimental: as §3
For the NADPH assay, each lung homogenate was mixed in a 1.5 mL Eppendorf tube with 100 μL NADPH extraction buffer for NADPH determination. Extracts then were heated at 60° C. for 5 min and then 20 μl assay buffer and 100 μl of the opposite extraction buffer were added to neutralize the extracts. Samples were briefly vortexed and centrifuged at 13,000 rpm for 5 min. The resulting supernatant was used for NADPH assays. 40 μl of standards were then transferred into wells of a clear bottom 96-well plate. For each well of the reaction, 80 μL working reagent were added per well quickly. Optical density for time “zero” (OD0) optical density after 30 min incubation (OD30) at room temperature were read at 565 nm (520-600 nm).

Il-10 [4] = system: Il-10; set-up: species or system C57BL/6 mice; details: mouse, in vivo
lysozyme = experiment: Lysozyme assay in lung homogenates; type: in vivo, C57BL/6 mice; details: 100 μg/dose, vs untreated infected mice
Experimental: as §3
The Lysozyme assay was performed as per manufacturer's instructions. Briefly, experimental samples were first diluted in 1× reaction buffer. A volume of 50 μl was used for each reaction. Then, 50 μl of the 50 μg/ml DQ lysozyme substrate were added to each microplate well containing the experimental or the standard curve samples. The reaction mix was then incubated at 37° C. for 30 min protected from light. The fluorescence in each of the samples was measured at absorption maxima at ˜494 nm and fluorescence emission maxima at ˜518 nm.

pSTAT3 (pY705) = experiment: ELISA for pSTAT3 in lung homogenates; type: in vivo, C57BL/6 mice; details: after two weeks of treatment (100 μg/dose), vs untreated infected mice
Experimental: Lung homogenates were screened for pSTAT3 (pY705 (tyrosine 705)) by ELISA following manufacturer's recommendations (Life Technologies). Briefly, the lung homogenates were re-suspended in the cell extraction buffer and incubated during 30 minutes on ice with intermittent vortexing followed by pelleting of the cell debris. Supernatants from each sample were collected and screened for their content of STAT3 (pY705). Standards were prepared using purified recombinant phosphorylated STAT3 protein. Thereafter, 100 μl of standards and diluted samples or control aliquots were distributed into microtiter wells and were incubated in the wells pre-coated with anti-pSTAT3 antibody. The reactions were developed using the detection anti-pSTAT3 antibody followed by 30 minutes incubation at RT with anti-rabbit IgG HRP. The reactions were visualized by incubation with a chromogenic substrate of HRP during 30 minutes at room temperature. The reactions were stopped with 100 μl of stop solution added to each well. Absorbance for each well was read at 450 nm.

Il-10 [5] = experiment: Cytometric bead array for IL-10 in lung homogenates; set-up: species or system C57BL/6 mice; details: mouse, in vivo
IFNγ = experiment: Cytometric bead array for IFNγ in lung homogenates; type: in vivo, C57BL/6 mice; details: CBA, 100 μg/dose, vs control mice
IL-12p40 = experiment: Cytometric bead array for IL-12p40 in lung homogenates; type: in vivo, C57BL/6 mice; details: CBA, 100 μg/dose, vs control mice
nos2 [6] = experiment: RT-PCR of nos2 transcript in lungs; type: in vivo, C57BL/6 mice
TNFα = experiment: Cytometric bead array for TNFα in lung homogenates; type: in vivo, C57BL/6 mice; details: CBA, 100 μg/dose, vs control mice
arg1 [7] = experiment: Arginase activity in lung homogenates; type: in vivo, C57BL/6 mice; details: 100 μg/dose, vs untreated infected mice
Experimental: as §3
The level of arginase activity in each lung homogenate was performed using the Quanti-Chrom Arginase Assay Kit (Bio Assay Systems, Hayward, Calif.). Briefly, protein concentration was normalized to 100 μg/ml. As a control, an aliquot of normalized protein was heat-inactivated at 90° C. for 10 min. 40 μl of untreated or heat-inactivated sample was incubated at 37° C. for 60 min with 10 μl of 5× reagent. Thereafter, the reaction was processed as recommended by the manufacturer and analyzed in a plate reader (Bio-Rad, Hercules, Calif.) at an absorbance of 430 nm. The absorbance of the heat-inactivated sample was subtracted from the respective untreated sample and then compared to urea standards. Activity of the arginase was reported in mU/mg of protein.

[8] = system: granuloma lesions in the lungs; experiment: Lung histopathology (H&E); set-up: species or system C57BL/6 mice; details: mouse, in vivo
pSTAT3 = experiment: Immunohistochemistry for pSTAT3 in lung tissue sections; set-up: species or system C57BL/6 mice; details: mouse, in vivo
IL-6 = experiment: Cytometric bead array for IL-6 in lung homogenates; type: in vivo, C57BL/6 mice; details: CBA, 100 μg/dose, vs control mice
[9] = RT-PCR, lungs, 100 μg/dose, vs control mice

| Substance | expression of beclin-1 transcript (in words) (beclin-1) | pulmonary expression of stat3 transcript (stat3) | NOS2 activity (concentration of NO) (nos2 [2]) | expression of bcl-2 transcript (in words) (bcl-2) | expression of bax transcript (in words) (bax) | change of pulmonary CFU (in words) [3] | expression of atg5 transcript (in words) (atg5) | NADPH activity (pyridine nucleotide) (NADPH) | pulmonary expression of il-10 transcript (Il-10 [4]) | lysozyme activity (DQ substrate) (lysozyme) | level of pSTAT3 in lung homogenates (pSTAT3 (pY705)) | level of IL-10 in lung homogenates (Il-10 [5]) | level of IFNγ expression in the lungs (IFNγ) | expression level of IL-12p40 in the lungs (IL-12p40) | level of TNFα in the lungs (TNFα) | Arg1 activity (arg1 [7]) | further results |
| --- | --- | --- | --- | --- | --- | --- | --- | --- | --- | --- | --- | --- | --- | --- | --- | --- | --- |
| Ac-EETQLSPKTSGFGSDTSGHLK-E-Pal (Ac-[dE][dE][dT][dQ][dL][dS][dP][dK][dT][dS]G[dF]G[dS][dD][dT][dS]G[dH][dL][dK](Palmitoyl); not fully specified; also: name K-E-Pal / C-terminal Glu-palmitoyl: Glu between Lys and palmitoyl?) [IL10R1-14] | reduced expression | no significant changes | lower or no increase | reduced expression | reduced expression | slight increase; also recorded: only the group of mice receiving the peptide inhibitor ST3-H2A2 had reduced the pulmonary CFU | increased expression | lower or no increase | no significant changes | lower or no increase | no significant changes | no significant changes | increased and up | down | reduced | increased | increase in arg1 transcript expression (arg1 [1]; [9]): 10 fold; increase in nos2 transcript expression (nos2 [6]; [9]): 2 fold |
| ε-Pal-KLVTLPLISSLQSSE-NH2 (K(Palmitoyl)LVTLPLISSLQSSE-NH2; N-terminus assumed; SMILES CCCCCCCCCCCCCCCC(=O)NCCCC[C@H](N)C(=O)N[C@@H](CC(C)C)C(=O)N[C@H](C(=O)N[C@H](C(=O)N[C@@H](CC(C)C)C(=O)N1CCC[C@H]1C(=O)N[C@@H](CC(C)C)C(=O)N[C@H](C(=O)N[C@@H](CO)C(=O)N[C@@H](CO)C(=O)N[C@@H](CC(C)C)C(=O)N[C@@H](CCC(N)=O)C(=O)N[C@@H](CO)C(=O)N[C@@H](CO)C(=O)N[C@@H](CCC(=O)O)C(N)=O)[C@@H](C)CC)[C@@H](C)O)C(C)C) [IL10R1-7] | reduced expression | lower levels | significantly elevated | reduced expression | reduced expression | only the group of mice receiving the peptide inhibitor ST3-H2A2 had reduced the pulmonary CFU | increased expression | significantly elevated | lower levels | significantly elevated | lower levels | lower levels | decreased and down | decreased and up | reduced and down | reduced or not changed | mRNA arg1 expression (in words) (arg1 [1]; mouse, in vivo): reduction; reduction of pulmonary bacterial load [3]: 0.6; histopathology of H&E stained lung sections [8]: increased numbers of clusters and highly packed lymphocytes; pSTAT3 staining by IHC in lung tissue sections (pSTAT3): reduced levels of pSTAT3 staining in the center of the granuloma lesions; expression level of IL-6 in the lungs (IL-6): decreased; mRNA nos2 expression (in words) (nos2 [6]; mouse, in vivo): reduction in transcript expression for nos2 and arg1 but not significantly for nos2 |
